Measured values published in patent US7935853B2, “Micronized composition of a 2,4-disubstituted phenol derivative” (priority 2008, dated 2011).
“And” between values parts separate entries of the source, which are not always exact repeats. Equal values may be shown once.

Tested on: pulmonary fibrosis induced by bleomycin in C57/BL6 mice
Assay: Model of pulmonary fibrosis induced by bleomycin in mice (bronchoalveolar lavage fluid)
Type: in vivo, mouse
Protocol: In the study, female, young and healthy C57/BL6 mice were used, of approximately 9-10 weeks of age at the start of the experimental phase. The choice of C57/BL6 mice was because this is the most commonly used mouse strain in the pulmonary fibrosis model.
Three experimental groups were used in the study:
Group A: (positive control): Bleomycin+Vehicle (PBS) n=10
Group B: Bleomycin+2,4,6-triiodophenol micronized 10 mg/kg q.d. (every 12 hours) n=10
Group C: No treatment (healthy animals) n=1
Where n is the number of animals in each experimental group.
The test item was administered as a suspension in 0.25% methylcellulose (the vehicle). The positive control group received the vehicle.
Both the test item and the vehicle were administered orally in a volume of 5 ml/kg twice per day (q.d.) every 12 hours.
On day 0 pulmonary fibrosis was induced by intratracheal instillation of 0.075 units of bleomycin in 50 μl of sterile saline solution into the lungs of each animal. Immediately afterwards 150 μl of air were introduced intratracheally into each mouse to aid in the pulmonary distribution of the bleomycin.
On day 7 after bleomycin administration, treatment with the test item or vehicle was commenced by oral administration. Treatment was carried out twice per day (every 12 hours) and was continued for 15 days.
On day 21 after bleomycin administration a bronchoalveolar lavage was carried out on all animals. To this effect, mice were anaesthetized with sodium pentobarbital and the trachea of each animal was cannulated. Afterwards 1 ml of PBS at 37° C. was instilled into each lung and re-aspirated back with the use of a syringe. This process was repeated 5 times, each time collecting the aspirated liquid in a vial and combining the liquid obtained from the 5 lavages. The recovered volume of bronchoalveolar lavage was adjusted for all animals to 5 mls.
Once the bronchoalveolar lavage fluid had been obtained, a sample was taken in order to determine cellular viability by trypan blue exclusion. Additionally, a sample of lavage fluid was kept frozen (−20° C.) for subsequent determination of CCL5 and TGF-β concentration by ELISA.
The remaining bronchoalveolar lavage fluid was spun in a cytocentrifuge and stained (Diff-Quick) in order to carry out a differential cell count.
All animals were weighed on arrival at the laboratory and each day during the treatment phase of the experimental period until the end of the study.
For each animal cell viability in bronchoalveolar lavage fluid was determined by Trypan Blue exclusion, and a differential cell count was done by staining cytocentrifuged samples with Diff-Quick stain (this was done on a population of approximately 200 cells per sample). Additionally, the concentration of CCL5 and TGF-β were also determined in bronchoalveolar lavage fluid samples by the use of commercially available ELISA kits specific for mice chemokines from R&D Systems.
The statistical significance of the results was evaluated by use of the statistical package Graphpad Instat 3.
All comparisons were evaluated by the use of Student's t-test (two-way, unpaired data). Values of P≦0.05 were taken as significant.

[1] = 10 mg/kg oral twice per day, starting 7 days after bleomycin
[2] = group mean, day 21, 10 mg/kg oral twice per day from day 7
[3] = group mean, day 21 after bleomycin, 10 mg/kg oral twice per day from day 7
[4] = individual mice, day 21, 10 mg/kg oral twice per day from day 7, listed as Group B, 10 mg/kg

Oc1c(I)cc(I)cc1I [Micronized, 2,4,6-triiodophenol]
effect on bleomycin-induced increase of CCL5 and TGFβ in bronchoalveolar lavage fluid (in words) [1]: very significant inhibition
effect on bleomycin-induced lymphocyte and neutrophil percentages in bronchoalveolar lavage fluid (in words) [1]: reduction of the bleomycin-induced increase in lymphocytes and neutrophil percentages
CCL5 concentration in BALF, mean [2]: 6.952 pg/mL
TGFβ concentration in BALF, mean [2]: 40.731 pg/mL
Lymphocytes, differential cell count in bronchoalveolar lavage fluid (%) [3]: 34.35%
Macrophages, differential cell count in bronchoalveolar lavage fluid (%) [3]: 60.33%
Neutrophils, differential cell count in bronchoalveolar lavage fluid (%) [3]: 5.32%
CCL5 concentration in BALF, individual animals [4]: 1.887 pg/mL and 3.041 pg/mL and 6.426 pg/mL and 24.658 pg/mL and 3.426 pg/mL and 2.272 pg/mL
TGFβ concentration in BALF, individual animals [4]: 6.319 pg/mL and 8.389 pg/mL and 26.335 pg/mL and 38.069 pg/mL and 121.586 pg/mL and 9.770 pg/mL and 74.651 pg/mL
